According to US6492330B1, “Antiangiogenic drugs” (National Institute of Immunology, priority 1996, dated 2002):
Positions of bridges follow the written chain, without caps; N, C: chain ends. Non-standard residues stand in square brackets, D forms with d. No end group written: not given here. Deg = CCC(N)(CC)C(=O)O; Aib = CC(C)(N)C(=O)O

Assays:
Assay type in all cases: cell-based
[1] = system: endothelial cells ECV.304; test: Migration assay across 8 μm polycarbonate filter transwell inserts; conditions: analog at optimum concentration −8M, 24 hours (Table 4)
Method: Polycarbonate filter transwell inserts (24 well size) with 8 μm pores (Nunc, Denmark) were used for the migration assay. ECV304 (10^4 cells/200 ul DMEM containing 0.1% BSA) was added to the upper chamber. The lower chamber contained 600 ul of DMEM with 0.1% BSA. Individual peptides of the composition MuJ-7 at six different concentrations each of N/100, N/10, N, 10N, 100N and 1000N were added directly to the upper well and the plate incubated at 37° C. for 24 hours. The cells migrated to the lower chamber were viewed randomly at five different phase-contrast microscopic fields and the total number of cells counted using Video Pro 32 Image Analysis system. Percent inhibition in migration was determined with reference to the Control. Similarly, […] different concentrations of N/100, N/10, N, 10N, 100N and 1000N of MuJ-7 were added directly to the upper well and the plate incubated at 37° C. for 24 hours. The cells migrated to the lower chamber were counted as described above.
Polycarbonate filter trasnwell inserts (24 well size) with 8 μm pores (Nuno, Denmark) were used for the migration assay. ECV304 (10^4 cells/200 ul DMEM containing 0.1% BSA) was added to the upper chamber. The lower chamber contained 600 ul of DMEM with 0.1% BSA. […] The sequence of each of the peptides added are described above. The cells migrated to the lower chamber were viewed randomly at five different phase-contrast microscopic fields and the total number of cells counted using Video Pro 32 Image Analysis system. Percent inhibition in migration was determined with reference to Control. […]

ECV304 = test: Tube-like-structure (TLS) formation on Matrigel; conditions: peptide −8M, 24 hours
Method: Matrigel (350 ul) was placed into each well of a 24-well culture plate at 4° C. and was allowed to polymerize by incubation at 37° C. for 30 min. ECV304 (1.5×10^4) were seeded on the Matrigel in 500 ul DMEM supplemented with 10% FBS. MuJ-7 at four different concentrations of 0.25×, 0.5×, ×, & 5.0× were added and. the plate incubated at 37° C. for 24 hour. “×” denotes normal concentration of MuJ-7 where molar concentration of individual peptides was 10^−8 M for VIP2, BOM1, SP1, VIP3 and SOM2 and 10^−7 M for VIP1 and 10^−9 M for SOM1. […] Percent inhibition in tube area was determined with reference to untreated cells.
Matrigel (350 ul) was placed into each well of a 24-well culture plate at 4° C. and was allowed to polymerize by incubation at 37° C. for 30 min. ECV304 (1.5×10^4) were seeded on the Matrigel in 500 ul DMEM supplemented with 10% FBS. […] Percent inhibition in tube length was determined with reference to untreated cells.
Matrigel (350 ul) was placed into each well of a 24-well culture plate at 4° C. and was allowed to polymerize by incubation at 37° C. for 30 min. ECV304 (1.5×10^4) were seeded on the Matrigel in 500 ul DMEM supplemented with 10% FBS. Individual peptides of the composition MuJ-7 at three different concentrations each of N/10, N, and 10N were added and the plate incubated at 37° C. for 24 hours. […] Percent inhibition in tube length was determined with reference to Control. Similarly, three different concentrations of N/10, N, and 10N of MuJ-7 were added to the well and the plate incubated at 37° C. for 24 hours. Percent inhibition in tube length was determined with reference to Control as described previously (Table 10).

ECV.304 cells = test: MTT assay, inhibition of proliferation of endothelial cells ECV.304; conditions: 72 hours (Table 2)
Method: 150 μl of medium was added to the wells of a 96-well tissue culture plate (Nunc, Denmark) followed by 30 μl of cell suspension. The plate was left in incubator (37° C., 5% CO2) overnight. Each of the seven peptides of the combination MuJ-7 were added at three molar concentrations of 10^−7M, 10^−8M and 10^−9M. 20 μl of MuJ-7 at three concentrations of N/10, N and 10N was added to marked wells of the 96-well plate. The value of N for each of the individual peptides was 10^−8M for VIP2, BOM1, SP1, VIP3, and SOM2 and 10^−7M for VIP1, and 10^−9M for SOM1. Each concentration was plated in triplicate. 20 μl of medium alone was added to control wells while wells without cells served as blanks. A total volume of 200 μl was ensured in each well and the plate was left in an incubator (37° C., 5% CO2). After 72 hours of incubation an MTT assay was performed and percentage inhibition in proliferation of treated cells was calculated with respect to control cells.
150 μl of medium was added to the wells of a 96-well tissue culture plate (Nunc, Denmark) followed by 30 μl of cell suspension. The plate was left in incubator (37° C., 5% CO2) overnight. Novel peptides shown below were incubated with cells at concentration range of 10^−7 to 10^−9 M (except DT71 at concentration range 10^−8 to 10^−10 M). Each concentration was plated in triplicates. 20 μl of medium alone was added to control wells while wells without cells served as blanks. A total volume of 200 μl was ensured in each well and plate was left in incubator (37° C., 5% CO2). After 72 hours of incubation an MTT assay was performed and percentage inhibition in proliferation of treated cells was calculated with respect to control cells.

Row | Substance | PERCENT INHIBITION MIGRATION [1] [%] | INHIBITION OF TUBE LENGTH (ECV304) [%] | PERCENT INHIBITION OF PROLIFERATION (ECV.304 cells; ECV304, 10^−7M) [%] | PERCENT INHIBITION OF PROLIFERATION (ECV.304 cells; ECV304, 10^−8M) [%] | PERCENT INHIBITION OF PROLIFERATION (ECV.304 cells; ECV304, 10^−9M) [%]
1 | Leu-Met-Tyr-Pro-Thr-Tyr-D-Leu-Lys-OH (LMYPTY[dL]K-OH; N-terminus assumed; SMILES CSCC[C@H](NC(=O)[C@@H](N)CC(C)C)C(=O)N[C@@H](Cc1ccc(O)cc1)C(=O)N1CCC[C@H]1C(=O)N[C@H](C(=O)N[C@@H](Cc1ccc(O)cc1)C(=O)N[C@H](CC(C)C)C(=O)N[C@@H](CCCCN)C(=O)O)[C@@H](C)O) [DT-14] | 77.3 | 24.3 | 17.0 | 6.0 | 20.5
2 | Aib-Met-Tyr-Pro-Thr-Tyr-Deg-Lys-OH ([Aib]MYPTY[Deg]K-OH; N-terminus assumed; SMILES CCC(CC)(NC(=O)[C@H](Cc1ccc(O)cc1)NC(=O)[C@@H](NC(=O)[C@@H]1CCCN1C(=O)[C@H](Cc1ccc(O)cc1)NC(=O)[C@H](CCSC)NC(=O)C(C)(C)N)[C@@H](C)O)C(=O)N[C@@H](CCCCN)C(=O)O) [DT-18] | 73.2 | 0 | 23.3 | 10.9 | 14.4
3 | LM[dY]PTY[dL]K-OH [DT-15] | 73.2 | 0 | 20.4 | 13.2 | 20.0
4 | D-Leu-Met-Tyr-Pro-Thr-Tyr-D-Leu-Lys-OH ([dL]MYPTY[dL]K-OH; N-terminus assumed; SMILES CSCC[C@H](NC(=O)[C@H](N)CC(C)C)C(=O)N[C@@H](Cc1ccc(O)cc1)C(=O)N1CCC[C@H]1C(=O)N[C@H](C(=O)N[C@@H](Cc1ccc(O)cc1)C(=O)N[C@H](CC(C)C)C(=O)N[C@@H](CCCCN)C(=O)O)[C@@H](C)O) [DT-16] | 90.07 | 18.9 | 24.0 | 24.7 | 37.9
5 | [dL]MQWF[Aib]-NH2 [DT-33] | 41.4 | 13.5 | 8.7 | 15.8 | 13.9
6 | D-Leu-Met-Tyr-Pro-Thr-Tyr-Deg-Lys-OH ([dL]MYPTY[Deg]K-OH; N-terminus assumed; SMILES CCC(CC)(NC(=O)[C@H](Cc1ccc(O)cc1)NC(=O)[C@@H](NC(=O)[C@@H]1CCCN1C(=O)[C@H](Cc1ccc(O)cc1)NC(=O)[C@H](CCSC)NC(=O)[C@H](N)CC(C)C)[C@@H](C)O)C(=O)N[C@@H](CCCCN)C(=O)O) [DT-19] | 80.4 | 37.8 | 11.9 | 7.3 | 21.0
7 | D-Leu-Met-Tyr-Pro-Thr-Tyr-Aib-Lys-OH ([dL]MYPTY[Aib]K-OH; N-terminus assumed; SMILES CSCC[C@H](NC(=O)[C@H](N)CC(C)C)C(=O)N[C@@H](Cc1ccc(O)cc1)C(=O)N1CCC[C@H]1C(=O)N[C@H](C(=O)N[C@@H](Cc1ccc(O)cc1)C(=O)NC(C)(C)C(=O)N[C@@H](CCCCN)C(=O)O)[C@@H](C)O) [DT-12] | 58.7 | 17.1 | 20.3 | 16.1 | 15.5
8 | [dF]QWAV[Aib]HL-NH2 [DT-24] | 0 | 16.2 | 6.4 | 9.8 | 10.7
9 | Aib-Met-Gln-Trp-Phe-Aib-NH2 ([Aib]MQWF[Aib]-NH2; N-terminus assumed; SMILES CSCC[C@H](NC(=O)C(C)(C)N)C(=O)N[C@@H](CCC(N)=O)C(=O)N[C@@H](Cc1c[nH]c2ccccc12)C(=O)N[C@@H](Cc1ccccc1)C(=O)NC(C)(C)C(N)=O) [DT-31] | 0 | 17.1 | 1.3 | 14.1 | 6.1
10 | Ala-Aib-Cys-Lys-Asn-Phe-Phe-D-Trp-Lys-Thr-Phe-Thr-Ser-Cys (3-14 Disulphide bond) (A[Aib]CKNFF[dW]KTFTSC; disulfide 3-14) [DT-62A] | 62.2 | 44.1 | 11.7 | 20.1 | 25.7
11 | Ala-Aib-Cys-Lys-Asn-Phe-Phe-D-Trp-Lys-Thr-Phe-Thr-Ser-Cys (A[Aib]CKNFF[dW]KTFTSC; ends and bridges not checked) [DT-62B] | 8.5 | 0 | 14.0 | 3.8 | 12.8
12 | Aib-Met-Tyr-Pro-Thr-Tyr-Aib-Lys-OH ([Aib]MYPTY[Aib]K-OH; N-terminus assumed; SMILES CSCC[C@H](NC(=O)C(C)(C)N)C(=O)N[C@@H](Cc1ccc(O)cc1)C(=O)N1CCC[C@H]1C(=O)N[C@H](C(=O)N[C@@H](Cc1ccc(O)cc1)C(=O)NC(C)(C)C(=O)N[C@@H](CCCCN)C(=O)O)[C@@H](C)O) [DT-11] | 82.5 | 3.6 | 16.7 | 18.7 | 19.9
